Reference: US9868750B2, “4,5-diarylimidazole derivatives as HDAC inhibitors” (CHARITÉ—UNIVERSITÄTSMEDIZIN BERLIN, priority 2014, dated 2018)
Counter-ions that a name gives are not always drawn. Like-named read-outs stand apart in the source and are kept apart here.

Columns and labels:
[1] = tested on: EGF-stimulated MCF-7/Topo cells; experiment: Matrigel-Transwell-Migration Assay; type: cell-based; conditions: EGF 200 ng/mL, 48 h
Procedure: FIG. 6: Influence of imidazole-based HDAC inhibitors Et-Animacroxam (compound 3) and Bimacroxam (compound 4) on resistance factors in tumor cell lines. A: Western blot analysis of Akt-phosphorylation (phospho-Akt) in 518A2 and MCF-7/Topo cell lysates (10 μg protein each) after 6 h of incubation. […] The amount of invasive cells was determined after calcein treatment via fluorescence measurement and DMSO-treated controls without EGF were set to 100%.

[2] = tested on: resistant cervix carcinoma (KB-V1/Vbl) cell line; experiment: Growth inhibition in KB-V1/Vbl cervix carcinoma cells; type: cell-based; conditions: Homo sapiens, 72 h, read-out: IC50 KB-V1/Vbl
[3] = tested on: resistant colon (HT-29) cell line; experiment: Growth inhibition (MTT) in HT-29 colon cancer cells; type: cell-based, human
[4] = tested on: HDAC active isolates from HeLa cytosolic extract; experiment: Fluorescence-based HDAC activity assay, HeLa cytosolic extract; conditions: for IC50: read-out: HDAC inhibition IC50, HeLa cytosolic extract, 1 μg extract, 25 μM Fluor-de-Lys substrate, 60 min
Procedure: (§1) Briefly, cell pellets from mass cultures were resuspended and incubated in cell extraction buffer (20 mM HEPES, 10 mM KCl, 0.1 mM EDTA, 0.1 mM EGTA, 1.5 mM MgCl2, 0.5 mM DTT) containing 0.1% Triton X-100 to lyse cell membranes and leave intact nuclei. After centrifugation (3,000 g, 2 min), the supernatant containing cytosolic proteins was aspirated from the nuclei pellet and the protein concentration of the cytosolic fraction was determined by a standard Bradford assay (Pierce/Thermo Scientific).
(§2) A fluorescence-based HDAC activity assay was used to assess the compound specificity for distinct HDAC classes. […] The Fluor-de-Lys substrate used allows to measure broad-spectrum HDAC activity from extracts or recombinant protein.

[5] = tested on: 1411HP xenograft (Cisplatin-resistant testicular cancer); experiment: 1411HP xenograft model; type: in vivo, mouse; conditions: 150 mg/kg i.p.
Procedure: FIG. 9: Activity of Et-Animacroxam (compound 3) in the 1411HP xenograft model (left: before treatment; right: 24 h after treatment with 150 mg/kg i.p. of Et-Animacroxam).

[6] = tested on: BRAF-mutant melanoma (518A2); experiment: Growth inhibition (MTT) in 518A2 melanoma cells; type: cell-based, human
518A2 melanoma cells = experiment: Western blot of 518A2 cell lysates: caspase-9 cleavage and histone H2B acetylation; type: cell-based, human; conditions: 518A2 cells; for acetylation of histone proteins (H2B) and alpha-tubulin after drug treatment: Western blot
Procedure: Western blot analysis of 518A2 cell lysates after drug treatment (3-24 h).

[7] = tested on: acetylated lysine residues in alpha-tubulin, 518A2 melanoma cells; experiment: Immunoblot for acetylated alpha-tubulin in 518A2 cells; type: cell-based, human; conditions: […] or 5 μM, 24 h, versus SAHA 5 μM
Text: Cell lysates were subjected to gel electrophoresis and immunoblotting for acetylated lysine residues in alpha-tubulin (55 kDa).

[8] = tested on: resistant breast (MCF-7/Topo) cell line; experiment: Growth inhibition in MCF-7/Topo breast cancer cells; type: cell-based
[9] = tested on: HDAC active isolates from HeLa nuclear extract; experiment: Fluorescence-based HDAC activity assay, HeLa nuclear extract; conditions: read-out: HDAC inhibition IC50, HeLa nuclear extract; 0.5 μg extract, 25 μM Fluor-de-Lys substrate, 60 min
Procedure: as §1, §2

[10] = tested on: primary endothelial cells (HUVEC, human umbilical vein endothelial cells); experiment: Growth inhibition in HUVEC; type: cell-based; conditions: for IC50: 72 h
Tolerance in Balb/c mice = type: in vivo; conditions: two Balb/c mice
Text: FIG. 8: Tolerance of Et-Animacroxam (compound 3) in two Balb/c mice (x-axis: day 1-7; y-axis: weight in gram).

recombinant human HDAC6 = target: T1, recombinant human HDAC6 (Homo sapiens, UniProt Q9UBN7); experiment: Fluorescence-based HDAC activity assay, recombinant HDAC6
T1 sequence (Q9UBN7 1-1215): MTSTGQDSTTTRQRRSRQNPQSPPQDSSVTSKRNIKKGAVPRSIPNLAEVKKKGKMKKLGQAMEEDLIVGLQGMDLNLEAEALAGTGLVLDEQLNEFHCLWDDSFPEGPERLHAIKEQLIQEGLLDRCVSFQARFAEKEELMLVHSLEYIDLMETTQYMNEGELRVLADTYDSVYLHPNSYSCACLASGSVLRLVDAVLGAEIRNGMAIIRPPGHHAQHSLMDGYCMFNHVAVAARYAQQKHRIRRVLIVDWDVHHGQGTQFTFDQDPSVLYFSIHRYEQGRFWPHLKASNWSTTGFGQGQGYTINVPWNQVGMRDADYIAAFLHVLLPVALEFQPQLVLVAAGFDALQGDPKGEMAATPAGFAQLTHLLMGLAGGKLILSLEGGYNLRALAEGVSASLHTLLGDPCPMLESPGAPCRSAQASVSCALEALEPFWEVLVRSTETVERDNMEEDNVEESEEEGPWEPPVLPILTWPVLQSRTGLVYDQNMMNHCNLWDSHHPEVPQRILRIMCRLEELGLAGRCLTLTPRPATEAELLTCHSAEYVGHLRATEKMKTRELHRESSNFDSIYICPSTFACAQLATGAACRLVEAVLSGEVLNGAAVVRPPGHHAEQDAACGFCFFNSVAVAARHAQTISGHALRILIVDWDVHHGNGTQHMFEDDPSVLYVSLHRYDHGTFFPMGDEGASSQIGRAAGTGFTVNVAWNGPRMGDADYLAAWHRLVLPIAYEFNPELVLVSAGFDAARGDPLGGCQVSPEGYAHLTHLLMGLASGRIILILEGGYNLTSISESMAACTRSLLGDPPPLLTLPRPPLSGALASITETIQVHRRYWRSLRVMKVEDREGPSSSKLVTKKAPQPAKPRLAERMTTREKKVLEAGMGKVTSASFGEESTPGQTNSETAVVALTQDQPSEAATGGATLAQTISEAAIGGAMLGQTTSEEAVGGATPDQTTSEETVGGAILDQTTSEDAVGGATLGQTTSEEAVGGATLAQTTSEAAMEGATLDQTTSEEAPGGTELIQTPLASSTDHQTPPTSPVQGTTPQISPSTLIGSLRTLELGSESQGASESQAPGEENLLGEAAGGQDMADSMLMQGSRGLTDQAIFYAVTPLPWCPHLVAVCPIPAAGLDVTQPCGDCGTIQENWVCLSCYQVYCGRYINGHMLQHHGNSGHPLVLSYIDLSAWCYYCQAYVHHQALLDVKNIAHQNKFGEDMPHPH
Text: as §2

[11] = tested on: hybrid endothelial cells (Ea.hy926); experiment: Growth inhibition in Ea.hy926 cells; type: cell-based; conditions: for IC50: Homo sapiens, EA.hy 926, 72 h
recombinant human HDAC1 = recombinant human HDAC1 (Homo sapiens, UniProt Q13547); experiment: Fluorescence-based HDAC activity assay, recombinant HDAC1; conditions: for fold less efficacious than vorinostat on HDAC1: relative to vorinostat IC50
Procedure: as §1, §2

[12] = tested on: non-malignant fibroblasts (CF, chicken fibroblasts); experiment: Growth inhibition in chicken fibroblasts; type: cell-based; conditions: Gallus gallus, Fibroblast, 72 h
[13] = tested on: HDAC active isolates from HeLa nuclear extract; conditions: 0.5 μg extract, 25 μM Fluor-de-Lys substrate, 60 min; read-out: HDAC inhibition IC50, HeLa nuclear extract (values from Mahal et al. 2015); cited from earlier work

Chain of recombinant human HDAC1 (Q13547 whole entry): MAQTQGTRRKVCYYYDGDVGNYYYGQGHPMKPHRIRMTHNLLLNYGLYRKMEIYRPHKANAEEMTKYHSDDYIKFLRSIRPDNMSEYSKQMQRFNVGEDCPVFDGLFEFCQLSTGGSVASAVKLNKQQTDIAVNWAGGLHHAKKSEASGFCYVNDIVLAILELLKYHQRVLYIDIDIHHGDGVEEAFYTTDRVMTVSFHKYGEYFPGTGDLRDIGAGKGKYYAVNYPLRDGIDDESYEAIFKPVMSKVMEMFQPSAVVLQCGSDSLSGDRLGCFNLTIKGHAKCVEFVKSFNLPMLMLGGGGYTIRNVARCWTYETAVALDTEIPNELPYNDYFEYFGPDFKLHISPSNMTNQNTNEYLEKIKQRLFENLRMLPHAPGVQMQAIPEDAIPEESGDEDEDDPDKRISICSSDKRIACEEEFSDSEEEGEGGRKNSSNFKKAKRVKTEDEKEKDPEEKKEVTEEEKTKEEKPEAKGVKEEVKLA

| Structure (SMILES) | IC50 ([3]; 72 h) [nM] | IC50 ([6]; 72 h) [nM] | IC50 [2] [nM] | IC50 ([3]; Homo sapiens, HT-29, 72 h) [nM] | IC50 [4] [nM] | IC50 ([6]; Homo sapiens, 518A2, 72 h) [nM] | acetylation of histone proteins (H2B) and alpha-tubulin after drug treatment (518A2 melanoma cells) | acetylated alpha-tubulin [7] | IC50 ([10]; Homo sapiens, HUVEC) [nM] | IC50 (recombinant human HDAC6) [nM] | IC50 [11] [nM] | IC50 (recombinant human HDAC1) [nM] | fold less efficacious than vorinostat on HDAC1 (recombinant human HDAC1) | IC50 [12] [nM] | other results |
| --- | --- | --- | --- | --- | --- | --- | --- | --- | --- | --- | --- | --- | --- | --- | --- |
| Cn1cnc(-c2ccccc2)c1-c1ccc(/C=C/C(=O)NO)cc1 (as salt: HCl) [Compound 4, 1-Methyl-4-phenyl-5-(4′-hydroxyaminocarbonylethenyl-phenyl)-imidazole×HCl] |  |  |  |  |  |  |  |  |  |  |  |  |  |  | melting point: 189 to 190 °C |
| CCn1cnc(-c2ccc(OC)cc2)c1-c1ccc(/C=C/C(=O)NO)cc1 [Compound 3, 1-Ethyl-4-(4-methoxyphenyl)-5-(4′-hydroxyaminocarbonylethenyl-phenyl)-imidazole×HCl] |  |  | 2910 ± 980 | 450 ± 30 | 36 ± 14 | 950 ± 190 | vastly acetylated | much higher extent compared with cells treated with SAHA | 1260 ± 450 | 66 | 990 ± 130 | 187 ± 37 | ca. tenfold | > 50000 | invasiveness of MCF-7/Topo cells [1]: significantly reduced invasiveness; times more active than vorinostat in the cytosolic fraction ([4]; HeLa cytosolic extract): ca. four; times more HDAC inhibiting in the cytosolic than in the nuclear fraction ([4]; HeLa cytosolic vs nuclear extract): ca. 14 times; diameter of bigger vessels of the tumor body ([5]; after 24 h): reduced significantly; visible side effects ([5]; mouse): did not cause any visible side effects; apoptosis induction (caspase-9-cleavage) (518A2 melanoma cells; 3-24 h): leads to apoptosis induction (caspase-9-cleavage); IC50 ([8]; Homo sapiens, MCF7/Topo, 72 h, read-out: IC50 MCF-7/Topo): 5600 ± 330 nM; IC50 [9]: 504 ± 24 nM; signs of toxicity (Tolerance in Balb/c mice; 2×20 mg/kg i.p. on two consecutive days): no signs of toxicity; weight of treated mice (Tolerance in Balb/c mice; 2×20 mg/kg i.p., day 1-7): roughly remained the same |
| Cn1cnc(-c2ccccc2)c1-c1ccc(/C=C/C(=O)NO)cc1 [Compound 4, 1-Methyl-4-phenyl-5-(4′-hydroxyaminocarbonylethenyl-phenyl)-imidazole×HCl] |  |  | 5040 ± 1820 | 1330 ± 70 | 132 ± 14 | 2760 ± 620 | vastly acetylated | much higher extent compared with cells treated with SAHA | 550 ± 290 | 107 ± 23 | 160 ± 30 | 28 ± 11 | ca. twofold | > 50000 | IC50 ([8]; Homo sapiens, MCF7/Topo, 72 h; read-out: IC50 MCF-7/Topo): 15300 ± 1400 nM; fold stronger in primary endothelial cells compared with 3 and SAHA ([10]; HUVEC): 12 fold; IC50 [13]: 234 nM; fold stronger in the Ea.hy926 cell line compared with 3 and SAHA ([11]; Ea.hy926): 10 fold |

Now from value to compound, other results behind:

| IC50 ([3]; 72 h) [nM] | IC50 ([6]; 72 h) [nM] | Structure (SMILES) | IC50 [2] [nM] | IC50 ([3]; Homo sapiens, HT-29, 72 h) [nM] | IC50 [4] [nM] | IC50 ([6]; Homo sapiens, 518A2, 72 h) [nM] | acetylation of histone proteins (H2B) and alpha-tubulin after drug treatment (518A2 melanoma cells) | acetylated alpha-tubulin [7] | IC50 ([10]; Homo sapiens, HUVEC) [nM] | IC50 (recombinant human HDAC6) [nM] | IC50 [11] [nM] | IC50 (recombinant human HDAC1) [nM] | fold less efficacious than vorinostat on HDAC1 (recombinant human HDAC1) | IC50 [12] [nM] | other results |
| --- | --- | --- | --- | --- | --- | --- | --- | --- | --- | --- | --- | --- | --- | --- | --- |
| 1450 ± 60 | 1940 ± 40 | Cn1cnc(-c2ccc(F)cc2)c1-c1ccc(C=CC(=O)NO)cc1 [Compound F-3, 1-Methyl-4-(4-fluorophenyl)-5-(4′-hydroxyaminocarbonylethenyl-phenyl)-imidazole×HCl] |  |  |  |  |  |  |  |  |  |  |  |  |  |
| 710 ± 60 | 1450 ± 70 | COc1ccc(-c2ncn(C)c2-c2ccc(C=CC(=O)NO)cc2)cc1 [Compound Nor-3, 1-Methyl-4-(4-methoxyphenyl)-5-(4′-hydroxyaminocarbonylethenyl-phenyl)-imidazole×HCl] |  |  |  |  |  |  |  |  |  |  |  |  | IC50 [10]: 830 ± 260 nM |
| 2800 ± 70 | 2230 ± 60 | Cn1cnc(-c2ccccc2)c1-c1cccc(C=CC(=O)NO)c1 [Compound iso-4, 1-Methyl-4-phenyl-5-(3′-hydroxyaminocarbonylethenyl-phenyl)-imidazole×HCl] |  |  |  |  |  |  |  |  |  |  |  |  |  |
